Experimental data from paper PMC9679999, “A Useful Guide to Lectin Binding: Machine-Learning Directed Annotation of 57 Unique Lectin Specificities” (ACS Chemical Biology, 2022).

What was measured:
Format in all cases: binding
[1] = molecular target: Marasmius oreades agglutinin (MOA) (Marasmius oreades, UniProt Q8X123); test: CFG glycan microarray v5, biotinylated lectin, Cy5-streptavidin
[2] = molecular target: T1, Cholera Toxin B Subunit (CTB) (Vibrio cholerae, UniProt P01556)
T1 construct: gene ctxB
T1 sequence (P01556 22-124 limits assumed): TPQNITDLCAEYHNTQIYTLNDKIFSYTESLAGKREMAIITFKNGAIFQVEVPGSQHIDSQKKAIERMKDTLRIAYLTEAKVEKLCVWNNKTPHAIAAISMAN

[3] = molecular target: T2, Psophocarpus tetragonolobus lectin-I (PTL-I/PTA-I) (Psophocarpus tetragonolobus, UniProt O24313); test: CFG glycan microarray v5, biotinylated lectin, Cy5-streptavidin
T2 construct: gene WBAI
T2 sequence (O24313 1-242): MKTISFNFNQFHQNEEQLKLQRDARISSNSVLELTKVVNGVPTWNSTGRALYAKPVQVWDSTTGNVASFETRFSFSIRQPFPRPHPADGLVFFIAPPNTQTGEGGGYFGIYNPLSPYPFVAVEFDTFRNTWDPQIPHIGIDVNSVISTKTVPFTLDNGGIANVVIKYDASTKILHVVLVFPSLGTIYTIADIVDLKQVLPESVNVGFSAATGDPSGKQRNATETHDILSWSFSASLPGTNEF

[4] = molecular target: T3, Hippeastrum hybrid Lectin (HHA, HHL) (Hippeastrum hybrid cultivar, UniProt Z9FHC8O5N0); test: as above
T3 construct: commercial lectin (EY and Vector), biotinylated
T3 sequence (Z9FHC8O5N0 1-108): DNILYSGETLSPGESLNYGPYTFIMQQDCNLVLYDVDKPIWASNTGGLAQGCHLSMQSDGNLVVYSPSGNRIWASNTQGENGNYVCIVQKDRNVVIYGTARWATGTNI

Marasmius oreades agglutinin (MOA), sequence (Q8X123 entry or part of it): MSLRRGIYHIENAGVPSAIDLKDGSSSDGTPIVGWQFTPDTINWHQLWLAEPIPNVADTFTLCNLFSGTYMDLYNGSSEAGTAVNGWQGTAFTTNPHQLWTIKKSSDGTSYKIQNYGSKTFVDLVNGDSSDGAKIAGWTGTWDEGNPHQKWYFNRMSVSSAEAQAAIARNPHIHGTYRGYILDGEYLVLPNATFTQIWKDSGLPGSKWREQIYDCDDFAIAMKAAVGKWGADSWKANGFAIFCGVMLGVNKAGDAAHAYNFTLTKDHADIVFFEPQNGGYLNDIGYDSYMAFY

## C[C@@H]1O[C@@H](O[C@H]2C(O)O[C@H](CO)[C@H](O)[C@@H]2O[C@H]2O[C@H](CO)[C@H](O)[C@H](O)[C@H]2O)[C@@H](O)[C@H](O)[C@@H]1O (stereo partly shown) [B trisaccharide]
[1]
  CFG glycan microarray v5, biotinylated lectin, Cy5-streptavidin: This motif lies within the B trisaccharide, which is preferentially bound by this lectin

## CC(=O)N[C@H]1[C@H](O[C@@H]2[C@H](O[C@]3(C(=O)O)C[C@H](O)[C@@H](NC(C)=O)[C@H]([C@H](O)[C@H](O)CO)O3)[C@@H](O)[C@H](O[C@H]3[C@H](O)[C@@H](O)C(O)O[C@@H]3CO)O[C@@H]2CO)O[C@H](CO)[C@H](O)[C@@H]1O[C@@H]1O[C@H](CO)[C@H](O)[C@H](O)[C@H]1O (stereo partly shown) [GM1]
[2]
  CFG glycan microarray v5, biotinylated lectin, Cy5-streptavidin: Our analysis found only two glycan binders, GM1 and fucosylated GM1

## CC(=O)N[C@H]1[C@@H](O[C@H]2[C@@H](O)[C@@H](CO)OC(O)[C@@H]2O[C@@H]2O[C@@H](C)[C@@H](O)[C@@H](O)[C@@H]2O)O[C@H](CO)[C@H](O)[C@@H]1O (stereo partly shown) [blood group A trisaccharide]
[3]
  CFG glycan microarray v5, biotinylated lectin, Cy5-streptavidin: we found blood group A trisaccharides

## OC[C@H]1O[C@H](OC[C@H]2OC(O)[C@@H](O)[C@@H](O[C@H]3O[C@H](CO)[C@@H](O)[C@H](O)[C@@H]3O)[C@@H]2O)[C@@H](O)[C@@H](O)[C@@H]1O (stereo partly shown) [mannose core trisaccharide]
[4]
  CFG glycan microarray v5, biotinylated lectin, Cy5-streptavidin: This lectin shows the highest affinity for the mannose core trisaccharide
